Assay results as given in patent US20090111893A1, “METHOD OF LOWERING BLOOD GLUCOSE AND METHOD OF PREVENTING OR TREATING BLOOD GLUCOSE AND METHOD OF PREVENTING OR TREATING DIABETES AND OBESITY” (National University Corporation Gunma University, priority 2007, published 2009).

What was measured:
Mouse 3T3-L1 fibroblasts = assay: Glucose uptake of confluent 3T3-L1 fibroblasts (glucose concentration in medium); assay type: cell-based; conditions: for glucose uptake-promoting activity: 3T3-L1 cells, same condition as Example 1, FIG. 3, n=3
Procedure: (1) Mouse 3T3-L1 fibroblasts were cultured in 1 ml of a suitable medium (contained in a 12-well plastic dish) for several days until the cells reached confluence. Then, the cells were cultured for 10-12 hours in the nutrition medium (None), the nutrition medium to which only 0.2% ethanol, a solvent of DIF-1, was added (EtOH), and the nutrition medium to which 10 or 20 µM DIF-1 dissolved in ethanol was added, respectively, and then, glucose concentration in each of the media was determined, based on which glucose uptake rate of the cells was calculated and the ratio with respect to the control was plotted (FIG. 1). […] The data of FIG. 1 are shown by mean value and standard deviation (Bars) of four independent experiments (n=4). (2) Then, mouse 3T3L1 fibroblasts were cultured in 1 ml of a suitable medium (contained in a 12-well plastic dish) until the cells reached confluence. After changing the medium to a new medium (this time point corresponds to 0 hour in the graph), DIF-1 was added, and glucose concentration in the medium was measured at the time point of 20 hours (FIG. 2A), based on which glucose consumption rate was calculated (FIG. 2B). Then, the media were changed to new media containing no DIF-1 for all the samples, and after culture was continued for another 20 hours, glucose concentration was measured (FIG. 2A). The number of cells at this time point was also determined (FIG. 2C). The data of the graph are mean values and standard deviations (Bars) (n=3) of the results of triplicate samples evaluated under the same conditions.
Glucose uptake-promoting activity of DIF-1 and its artificial derivatives (2-MIDIF1, DMPH, THPH) were compared in the same condition as Example 1 (FIG. 3). The data of the graph are mean values and standard deviations (Bars) (n=3) of three independent experiments.
Glucose uptake-promoting activity of DIF-1 derivative compounds in 3T3-L1 cells was evaluated in the same manner as described above. The data of the graph are mean values and standard deviations (Bars) (n=3) of triplicate samples measured under the same conditions.

KKAy diabetic model mice = assay type: in vivo; conditions: for blood glucose level as compared with the control group: KKAy mice, intraperitoneal 25, 50 and 100 mg/kg, 4 and 8 hours after administration, n=2, FIG. 6; for death of mice: mouse, in vivo
Procedure: The in vivo effects of DIF-1 and DIF-1 (3M) were also evaluated with the KKAy diabetic model mice. The drugs were administered intraperitoneally to KKAy mice (male, 13 weeks: Clea Japan) at the concentrations of 25, 50, and 100 mg/kg, respectively, and after free feeding (Time 0), blood glucose level was monitored at the indicated time points (FIG. 6). Each of the experiments used two mice, and the mean values of the relative blood glucose concentrations and ½ variance (Bars)(n=2) were plotted.

[1] = system: RGM-1 cells (isolated from rat gastric mucosa); assay: Glucose uptake of RGM-1 cells (glucose concentration in medium); assay type: cell-based
Procedure: Similar experiments were performed with RGM-1 cells (isolated from rat gastric mucosa) to evaluate the change in glucose concentration in the medium containing DIF-1 or other compounds (FIG. 4). The data of the graph are mean values and standard deviations (Bars) (n=3) of triplicate samples measured under the same conditions.

3T3-L1 adipocytes = assay: 2-deoxy glucose uptake in 3T3-L1 adipocytes, with or without insulin; assay type: cell-based, mouse
Procedure: Confluent 3T3-L1 fibroblasts (cultured in a 12-well plate) were treated with IBMX (3-isobutyl-1-methylxanhine), dexamethasone, and insulin to induce differentiation into 3T3-L1 adipocytes (Student A K, Hsu R Y & Lane M D (1980) J. Biol. Chem. 255, 4745-4750.). The 3T3-L1 adipocytes were cultured in the presence of DIF-1 whose concentration is shown in FIG. 5 for four hours, and 2-deoxy glucose uptake was measured. At the same time, some of the adipocytes were stimulated with 100 nM insulin during cultivation (after 3.5 hours) in the presence of DIF-1, and cultured for another 30 minutes, and glucose uptake of the cells was measured. Each experiment was performed in triplicates, and the mean values thereof were calculated in each experiment. Such experiments were performed twice and the mean values and ½ variance (Bars) of the two experiments (n=2) were plotted in FIG. 5.

ICR mice = assay: Blood glucose level in ICR mice after intraperitoneal glucose; assay type: in vivo, mouse; conditions: glucose 0.3 g/kg i.p. together with DIF-1, 50 mg/kg group and 100 mg/kg group, FIG. 7
Procedure: Glucose (0.3 g/kg) was administered intraperitoneally to ICR mice (male, 6-7 weeks) together with DIF-1 (solvent: 5% DMSO, 5% CREMOPHOR, and 90% distilled water), and blood glucose level was determined from just after the administration. Mice to which only glucose was administered was used as a control group, and mice to which neither glucose nor DIF-1 was administered was used as a normal group.

COCc1nc2c([nH]1)c(=O)n(C)c(=O)n2CC(C)C [8-MIBMX, reference compound]
glucose uptake-promoting activity (Mouse 3T3-L1 fibroblasts): did not promote glucose uptake

CNc1ccc2oc(C[C@H]3O[C@@]4(CC[C@H]3C)O[C@H]([C@H](C)C(=O)c3ccc[nH]3)[C@H](C)C[C@H]4C)nc2c1C(=O)O [A23187, reference compound]
glucose uptake-promoting activity (Mouse 3T3-L1 fibroblasts): did not promote glucose uptake

COc1c(Cl)c(O)c(C(=O)CC(C)(C)C)c(O)c1Cl [DIF-1 (3M)]
blood glucose level as compared with the control group (KKAy diabetic model mice): low blood glucose level | death of mice (KKAy diabetic model mice): No mice died

CCCCCC(=O)c1c(O)c(Cl)c(OC)c(Cl)c1O [DIF-1]
cell morphology and cell damage by microscopic observation (Mouse 3T3-L1 fibroblasts; 3T3-L1 fibroblasts in the presence of DIF-1): cell damage was not observed | glucose uptake ratio of the cell (ratio with respect to the control) (Mouse 3T3-L1 fibroblasts; 3T3-L1 fibroblasts, 10-12 hours culture, 10 or 20 µM DIF-1, FIG. 1, n=4): increased dependently on DIF-1 concentration | glucose uptake of cells (glucose consumption rate) (Mouse 3T3-L1 fibroblasts; 3T3-L1 fibroblasts, 20-hour culture with DIF-1, FIG. 2A/2B, n=3): promotes glucose uptake of cells in a concentration-dependent manner | number of cells (Mouse 3T3-L1 fibroblasts; 3T3-L1 fibroblasts, after 40-hour culture, FIG. 2C): without influencing the number of cells | reversibility of the action on glucose uptake (Mouse 3T3-L1 fibroblasts; 3T3-L1 fibroblasts, medium changed to DIF-1-free medium, another 20 hours, FIG. 2A): reversible | glucose uptake ([1]; 6- and 12-hour culture, FIG. 4): promotes glucose uptake in a concentration-dependent manner | cell number ([1]; after 12-hour culture, FIG. 4C): without influencing cell number | 2-deoxy glucose uptake (3T3-L1 adipocytes; DIF-1 singly, four hours, FIG. 5, n=2): promoted glucose uptake in a concentration-dependent manner | 2-deoxy glucose uptake with insulin (3T3-L1 adipocytes; relatively low concentration of DIF-1 plus 100 nM insulin for the last 30 minutes, FIG. 5): additive effect with insulin | blood glucose level as compared with the control group (KKAy diabetic model mice): low blood glucose level | death of mice (KKAy diabetic model mice): No mice died | blood glucose level as compared with the control group (ICR mice): significantly lowered blood glucose level

C/C=C(/C)C(=O)O[C@H]1C(C)=C2[C@H]([C@@H]1OC(=O)CCCCCCC)[C@@](C)(OC(C)=O)C[C@H](OC(=O)CCC)[C@@]1(O)[C@H]2OC(=O)[C@@]1(C)O [Tg, Thapsigargin, reference compound]
glucose uptake-promoting activity (Mouse 3T3-L1 fibroblasts): did not promote glucose uptake
